The record followed here is US6413761B2, “Decaprenyl diphosphate synthetase gene” (Toyota Jidosha Kabushiki Kaisha, priority 1997, dated 2002).

This experiment deals with DPP synthetase. The experiment in a line: Substrate specificity of the DPP synthetase on various allylic primers ([14C]IPP incorporation). The experiment is classed as biochemical, Paracoccus denitrificans. As to conditions: for Enzyme Activity: allylic primer 25 μM, [14C]IPP 125 μM, 37° C., 1 hour; for Activity of the DPP synthetase with the allylic substrate (in words): substance used as allylic primer substrate. The protocol:
A 200 μl reaction solution shown below was prepared using an appropriate amount of the crude enzyme extract, various allylic primers and [^1-14C]IPP (54 or 57 Ci/mol; Amersham).
The solution was incubated at 37° C. for 1 hour to allow an enzyme reaction. Then, 200 μl of saturated aqueous NaCl solution and 1 ml of n-BuOH saturated with saturated aqueous NaCl solution were added thereto and agitated well. The resultant solution was centrifuged to extract the reaction products. 200 μl of the BuOH layer was collected, and 3 ml of Clear Sol was added thereto. Then, the enzyme activity was determined by measuring the radioactivity in the BuOH extract with a liquid scintillation counter. The enzyme activity was expressed in unit, one unit being the amount of IPP (nmol) taken into the reaction products per 1 minute.
The substrate specificity of this DPP synthetase has been examined on various allyl primers. The unit of enzyme activity is as defined above.

As to `CC(C)=CCC/C(C)=C/CC/C(C)=C/CC/C(C)=C/COP(=O)(O)OP(=O)(O)O` [EEE-GGPP, EEE-geranylgeranyl diphosphate], the “Activity of the DPP synthetase with the allylic substrate (in words)” value is recorded as “strong activity”. Also, the “Enzyme Activity” value (+Triton X-100 (0.5%)) was 35.33 ×10^−3 unit. Further, the “Enzyme Activity” value (−Triton X-100) was 3.22 ×10^−3 unit.
As for `CC(C)=CCC/C(C)=C/COP(=O)(O)OP(=O)(O)O` [GPP, geranyl diphosphate], the “Activity of the DPP synthetase with the allylic substrate (in words)” value is recorded as “slight activity”. Moreover, the “Enzyme Activity” value (+Triton X-100 (0.5%)) is reported as 19.8 ×10^−3 unit. In addition, the “Enzyme Activity” value (−Triton X-100) is listed as 1.78 ×10^−3 unit.
The like results for `CC(C)=CCC/C(C)=C/CC/C(C)=C/CC/C(C)=C\COP(=O)(O)OP(=O)(O)O` [ZEE-GGPP, ZEE-geranylgeranyl diphosphate] were, in that order, “little activity”, 3.68 ×10^−3 unit and 2.47 ×10^−3 unit.
